The nature of data set [1]: effect on fasting blood glucose in mice. The class given is in vivo, mouse (male CD-1). Conditions: i.v. On the procedure:
To study the effect of steroid administrator or the NHE responsible for secretion of insulin, several of the aminosterols from shark liver were administered to fasting mice. Male CD-1 mice were assigned to one of four treatment groups. Whole blood glucose was tested using glucometer (Lifescan Glucometer II and One Touch test strips). Statistical analysis was via one-way analysis of variance (ANOVA) followed by subsequent Bonferonni's t-test.

The subject of data set [2] is Human ovarian carcinoma SKOV3. In words: growth inhibition in vitro. The class given is cell-based. Conditions: SKOV3. On the procedure: As set forth in Table 7 below, all malignant tumors evaluated in tissue culture, endothelial cells and vascular smooth muscle cells were sensitive to inhibition. Thus, compound 1436 has application in the control of growth factor dependent proliferation of many types of tissue.
Using the assay described above, the anticancer effects of compound 1437 against several cancer lines was assessed.

Data set [3] relates to stage 59-60 Xenopus tadpole. The experiment in a line: Xenopus tadpole assay. Particulars: for tadpole response: 10 μg/ml, about 1 hour.
For data set [4], the system named is L1210 lymphoblastic leukemia cells. In words: mouse model of leukemia. In kind it is in vivo.
Text: C57B mice were inoculated with L1210 lymphoblastic leukemia cells at an inoculum that causes leukemia in 100% of animals.
The test system of the next data set is E. coli. In words: antibiotic activity (MIC). The class given is cell-based. Conditions: Escherichia coli; E. coli; read-out: MIC. The source says:
(§1) Thus, it is possible to achieve an antimicrobial steroid with or without squalamine-like pharmacological activity.

For a further data set, the system named is P. aerug. In words: antibiotic activity (MIC). In kind it is cell-based. Conditions: P. aerug; read-out: MIC.
Text: as §1

Another data set concerns S. aureus. The experiment in a line: antibiotic activity (MIC). Particulars: Staphylococcus aureus; S. aureus; read-out: MIC. The class given is cell-based.
Text: as §1

The subject of a further data set is C. albicans. The experiment in a line: antibiotic activity (MIC). In kind it is cell-based. Particulars: Candida albicans; C. albicans; read-out: MIC.
Text: as §1

Another data set has as its system B16 melanoma. The experiment in a line: suppression of growth of B16 melanoma in C57B mice. In kind it is in vivo, mouse. Conditions: subcutaneous, C57B mice, FIG. 6. The protocol: The growth of B16 melanoma in C57B mice is dependent upon neovascularization.
Using the growth of B16 melanoma cells in C57B mice, a recognized model for the evaluation of inhibitors of angiogenesis on the growth of cancers, the effects of subcutaneous, intraperitoneal and oral administration of squalamine were evaluated.
Based on the idea that tumor growth involves both the clonal expansion of a malignant cell along with the development of a supporting vascular supply, a combination of compound 1436 with squalamine was tested to determine whether it would achieve a synergistic effect on solid tumor growth. This concept was evaluated in the B16 melanoma model.
Animals were implanted with B16 melanoma followed by treatment with compound 1436 or 1256 administered in a combined schedule or separately. […] Thus, a combination of these two compounds achieves a therapeutic benefit in tumors dependent on neovascularization that may prevent metastatic spread.

For data set [5], the system named is chick embryo vitelline capillaries. The experiment in a line: chick embryo vitelline capillary regression assay. The class given is in vivo. On the procedure:
Using the chick embryo vitelline capillaries assay, compounds were tested for their ability to induce capillary regression. Each compound was applied in 0.1 ml of 15% Ficol 400 and PBS onto the embryo, and vascular regression was assessed after 60 minutes.
The 3-day chick embryo consists of an embryonic disc from which numerous vessels emerge and return, forming a "FIG. 8"-shaped structure--the embryo in the center with vascular loops extending outward over both poles. […] Following a lag period of around 15 minutes, the constriction of continuity between capillary and secondary vessels, generally on the "venous" side, was observed. Continued pulsatile blood flow progressed, resulting in a "swelling" of the blind tube, followed by a pinching off of the remaining connection and formation of an enclosed vascular sac resembling a "blood island." This process progressed until only the largest vessels remained intact.

The test system of a further data set is NHE. The experiment in a line: comparison of compound 319 with squalamine through the assays. The text has this: Moreover, other aminosterols have shown anti-angiogenic activity. Compounds were subjected to a various assays, including the chick embryo capillary regression assay, the tadpole assay, the assay for inhibition of endothelial cord formation, and the assay for direct inhibition of NHE, as described above, to determine their utilities. As evident from the above data, correlation among the results from the chick, tadpole and in vitro inhibition of endothelial cell cord formation assays is excellent.
Through the application of these assays, compound 319 emerged as an attractive alternative to squalamine. […] Further properties of compound 319 are discussed below.

Data set [6] relates to human microvascular cells. The experiment in a line: inhibition of endothelial cell cord formation in vitro. For effect on endothelial cord formation: key: +: Inhibition of angiogenesis; -: No inhibition of angiogenesis; Toxic; *: cell rounding @ 10 µg/ml. The class given is cell-based. The text has this:
Endothelial cells have the capacity in vitro to form tubular aggregates resembling capillaries in various early stages of formation. This conversion occurs under relatively specific conditions, in which essential growth factors along with an effective substratum are provided. It has been shown that both the interaction of growth factors with the endothelial cell and its attachment to a substratum activate the NHE. The activation of this exchanger is believed to be required for subsequent morphologic transformation of the endothelial cell into a multicellular tubular structure.
To assess the effect of compounds on the cord-like structures formed by human microvascular cells when plated in the presence of VEGF (Vascular Endothelial Growth Factor) and basic fibroblast growth factor on a collagen matrix, a standard cord formation assay was used.

Data set [7] is described as follows: effect on arterial resistance in the rat. In kind it is in vivo. Particulars: 40 μg noradrenaline, 30 minutes after compound 1436. The protocol: A 200-g rat was catheterized in the right carotid artery, and the compound was introduced over a ten-second period to a total dosage of 5 mg/kg. Within 30 seconds, the mean arterial pressure had fallen from about 100 mm Hg to about 70 mm Hg, with a marked reduction in pulse pressure from about 40 mm to about 10 mm. […] If cardiac output was basically unaffected, reduction in blood pressure would have resulted principally from a reduction in system resistance.
At that time, 40 μg of noradrenaline was introduced.

The test system of another data set is Human melanoma WM 1167. In words: cytotoxic activity against cancer cells. The class given is cell-based.
The subject of another data set is human melanoma. The experiment in a line: effect on growth of human melanoma over time / mode of cell death. In kind it is cell-based.
A further data set relates to Lewis lung carcinoma. In words: cytotoxic activity against cancer cells. The class given is cell-based.

In brackets after ≈: the same amount, converted by molar mass. Entries after “also recorded” stand apart in the source; their conditions may differ.

For `CC(C)C(CO)(CC[C@@H](C)[C@H]1CC[C@H]2[C@@H]3[C@H](O)C[C@H]4C[C@@H](NCCCNCCCCN)CC[C@]4(C)[C@H]3CC[C@]12C)OS(=O)(=O)O` (single isomer, unassigned) [Compound 1437], in [1], the hyperglycemia entry is on record as “caused hyperglycemia in mice”. Moreover, in data set [2], the anticancer activity entry is given as “exhibit anticancer activity”. Besides, the tadpole response entry in [3] is “Epithelium covering the embryonic portions of the animal, such as the tail and antennae, began to slough off in sheets; also recorded: the larval skin was observed to shed off in a sheet”.

With `N.N.[Cl][Pt][Cl]` [Cisplatin, reference compound], the hematological profile entry in data set [4] is recorded as “profound anemia by day 28”.

Consider `C[C@H](CCC(=O)O)[C@H]1CC[C@H]2[C@@H]3CC[C@H]4C[C@@H](NCCCNCCCCN)CC[C@]4(C)[C@H]3CC[C@]12C` [Compound 319], for which the MIC with E. coli is 32 to 64 µg/mL (≈ 63.5 to 127 µM); with P. aerug it was 32 µg/mL (≈ 63.5 µM); with S. aureus, 64 µg/mL (≈ 127 µM); in the data set on C. albicans, 8 µg/mL (≈ 15.9 µM). In addition, the “control of B16 melanoma” value in the data set on B16 melanoma is listed as “achieved control of B16 in C57B mice to an extent almost comparable to squalamine”. For the same compound, the relative activity result in data set [5] (Table 5) was “especially active”. In addition, the “CNS effects (specificity)” value with NHE is listed as “no CNS effects”. In the data set on NHE, the “potency as an NHE inhibitor vs squalamine” value is on record as “superior to squalamine”. For the same compound, the “effect on endothelial cord formation” value is “-” in [6] (0.01 μg/ml), “+” in [6] (0.1 μg/ml), “+” in data set [6] (1.0 μg/ml) and “+” in [6] (10.0 μg/ml). For the same compound, in data set [3], the tadpole response result was “common vascular occlusive effect”.

Turning to `NC[C@H](O)c1ccc(O)c(O)c1` [noradrenaline, reference compound], the “blood pressure after noradrenaline” value in data set [7] is “An almost immediate increase in blood pressure”.

For the compound `CC(C)CCC[C@@H](C)[C@H]1CC[C@H]2[C@@H]3CC[C@H]4C[C@@H](NCCCNCCCCNCCCN)CC[C@]4(C)[C@H]3CC[C@]12C` [Compound 353], the MIC in the data set on E. coli came to 128 µg/mL (≈ 223 µM); in the data set with P. aerug, 64 µg/mL (≈ 112 µM); in the data set with S. aureus, 16 µg/mL (≈ 27.9 µM); in the data set with C. albicans, 32 µg/mL (≈ 55.8 µM). Besides, the “vitelline capillary regression, potency in words” value in data set [5] is “no effect on the chick embryo capillary bed”. Further, the IC50 in the data set with Human melanoma WM 1167 was 3 µg/mL (≈ 5.24 µM); in the data set on Lewis lung carcinoma, 1.9 µg/mL (≈ 3.32 µM). Also, the “mode of cell death” value with human melanoma was “apoptotic cell death has been induced”. For the same compound, the “effect on endothelial cord formation” value in data set [6] (0.1 μg/ml), in data set [6] (1.0 μg/ml) and in data set [6] (10.0 μg/ml) was “+” throughout. The minimal effective concentration in data set [6] (Homo sapiens, Endothelial cell, Table II, read-out: Minimum Effective Concentration, Cord Formation) is 10 µg/mL. For the same compound, the “similarity of pharmacologic activity in tadpole assay” value in data set [3] (in vivo) is reported as “effects like those produced by compound 1436”.

Values taken from patent US5763430A, “Method of treating a viral infection by administering a steroid compound” (priority 1995, dated 1998).
